A word on the IC50: it is the concentration at which inhibition is half-maximal.

The experiment has as its target T1, HEK-Blue-hTLR9 cells (Homo sapiens, UniProt Q9NR96).
T1 construct: expressed in transfected cells; host or cells: HEK-Blue-hTLR9 cells (HEK293-derived reporter line)
T1 sequence (Q9NR96 26-1032): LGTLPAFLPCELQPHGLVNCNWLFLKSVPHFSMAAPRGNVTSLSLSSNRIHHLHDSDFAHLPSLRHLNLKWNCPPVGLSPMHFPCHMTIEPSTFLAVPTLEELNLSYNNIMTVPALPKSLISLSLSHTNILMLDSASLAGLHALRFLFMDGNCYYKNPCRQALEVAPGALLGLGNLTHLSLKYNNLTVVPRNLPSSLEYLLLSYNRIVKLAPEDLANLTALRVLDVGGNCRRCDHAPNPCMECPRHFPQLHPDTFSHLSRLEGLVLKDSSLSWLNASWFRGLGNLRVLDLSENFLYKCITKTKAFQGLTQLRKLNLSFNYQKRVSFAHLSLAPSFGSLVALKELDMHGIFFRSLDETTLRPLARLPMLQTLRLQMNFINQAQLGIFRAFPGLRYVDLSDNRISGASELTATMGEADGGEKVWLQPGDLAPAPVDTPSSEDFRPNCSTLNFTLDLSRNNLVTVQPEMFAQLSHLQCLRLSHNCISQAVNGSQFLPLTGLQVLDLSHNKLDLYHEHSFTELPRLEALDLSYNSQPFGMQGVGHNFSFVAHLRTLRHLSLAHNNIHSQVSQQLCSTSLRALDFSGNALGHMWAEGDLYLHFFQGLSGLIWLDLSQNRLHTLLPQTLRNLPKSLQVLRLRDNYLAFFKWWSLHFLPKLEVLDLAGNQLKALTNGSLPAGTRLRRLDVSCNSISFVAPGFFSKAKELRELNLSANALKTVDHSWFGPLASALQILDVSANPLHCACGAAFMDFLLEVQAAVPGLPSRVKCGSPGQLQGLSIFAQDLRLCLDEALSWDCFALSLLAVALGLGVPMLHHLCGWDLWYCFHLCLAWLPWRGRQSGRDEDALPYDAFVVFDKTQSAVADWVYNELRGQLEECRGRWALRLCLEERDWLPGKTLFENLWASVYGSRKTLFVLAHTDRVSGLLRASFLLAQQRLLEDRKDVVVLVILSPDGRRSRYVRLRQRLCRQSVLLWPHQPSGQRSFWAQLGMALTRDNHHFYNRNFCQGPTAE
Nature of the experiment: HEK-Blue-hTLR9 cell inhibition assay. The settings on record: ODN2006 1 µM, 16 h, OD 620 nm, read-out: TLR9 IC50. Format: cell-based. The protocol: HEK-Blue-hTLR7/8/9 cell inhibition assay
1. HEK-Blue-hTLR7/8 cells (1 × 10^4 cells/well) and HEK-Blue-hTLR9 cells (1.5 × 10^4 cells/well) were seeded in a 384-well cell culture plate, with a volume of 30 µL per well. The plate was incubated at 37°C in a 5% CO2 incubator for 4 h. 2. The compound was prepared with DMSO and diluted in DMEM medium to 10 concentrations (1:3 dilution), with final concentrations of 10000, 3333.3, 1111.1, 370.4, 123.5, 41.2, 13.7, 4.6, 1.5, and 0.5 nM; R848 was prepared with DMSO and diluted in DMEM medium, with final concentrations of 0.8 µM (HEK-Blue-hTLR7) and 3 µM (HEK-Blue-hTLR8); ODN2006 was prepared with endotoxin-free water and diluted in DMEM medium, with a final concentration of 1 µM. 3. Cells treated with DMSO were used as the blank control group, while cells treated solely with Resiquimod (R848) were used as the positive control group for HEK-Blue-hTLR7/8, and cells treated solely with ODN2006 were used as the positive control group for HEK-Blue-hTLR9. Cells treated with the test compound together with R848 or ODN2006 were used as the test group. Two parallel wells were set for each group and were placed at 37°C in a 5% CO2 incubator for incubation. 4. After being incubated for 4 h, the 384-well plate of HEK-Blue-hTLR7/8 was taken out from the incubator, and R848 alone or both R848 and the diluted compound were separately added into each well. The plate was placed at 37°C in a 5% CO2 incubator for incubation for 16 h; the 384-well plate of HEK-Blue-hTLR9 was taken out from the incubator, and ODN2006 alone or both ODN2006 and the diluted compound were added separately to each well. The plate was incubated at 37°C in a 5% CO2 incubator for 16 h. 5. After being incubated for 16 h, the 384-well plate was removed from the incubator and centrifuged at 1000 rpm for 1 minute. The optical density value of each well at 620 nm was measured using a multifunctional microplate reader. 6. The cell inhibition rate was calculated as (1-(OD620 test group-OD620 blank group)/(OD620 positive group-OD620 blank group))×100%, and the half maximal inhibitory concentration (IC50) was calculated through curve fitting. Table 1: Activity of the compounds of the present disclosure in HEK-Blue-hTLR7/8/9 cellular assays

In the case of `CN(C)Cc1nnc([C@]23CN(c4ccc(C#N)c5ncccc45)C[C@@]2(C(F)(F)F)C3)o1` [Compound 42, 5-((1S,5R)-1-(5-((dimethylamino)methyl)-1,3,4-oxadiazol-2-yl)-5-(trifluoromethyl)-3-azabicyclo[3.1.0]hexan-3-yl)quinoline-8-carbonitrile], the IC50 is > 10 µM.
Next, `N#Cc1ccc(N2C[C@]3(c4nnc(CCN5CCOCC5)o4)C[C@]3(C(F)(F)F)C2)c2cccnc12` [Compound 43, 5-((1S,5R)-1-(5-(morpholinoethyl)-1,3,4-oxadiazol-2-yl)-5-(trifluoromethyl)-3-azabicyclo[3.1.0]hexan-3-yl)quinoline-8-carbonitrile]: > 10 µM.
As for `Cn1c(CN2CCCC2)nnc1[C@]12CN(c3ccc(C#N)c4ncccc34)C[C@@]1(C(F)(F)F)C2` [Compound 44, 5-((1S,5R)-1-(4-methyl-5-(pyrrolidin-1-ylmethyl)-4H-1,2,4-triazol-3-yl)-5-(trifluoromethyl)-3-azabicyclo[3.1.0]hexan-3-yl)quinoline-8-carbonitrile], the figure is > 10 µM.
Next, `N#Cc1ccc(N2C[C@]3(c4nnc(C5CNCC(F)C5)o4)C[C@]3(C(F)(F)F)C2)c2cccnc12` (stereo partly drawn) [Compound 45, 5-((1R,5S)-1-((difluoro-3-methyl)-12-fluoraneyl)-5-(5-(5-fluoropiperidin-3-yl)-1,3,4-oxadiazol-2-yl)-3-azabicyclo[3.1.0]hexan-3-yl)quinoline-8-carbonitrile]: > 10 µM.
As for `N#Cc1ccc(N2C[C@]3(c4nnc(C5(F)CCNC5)o4)C[C@]3(C(F)(F)F)C2)c2cccnc12` (stereo partly drawn) [Compound 46, 5-((1S,5R)-1-(5-(3-fluoropyrrolidin-3-yl)-1,3,4-oxadiazol-2-yl)-5-(trifluoromethyl)-3-azabicyclo[3.1.0]hexan-3-yl)quinoline-8-carbonitrile], the IC50 is > 10 µM.
Take `CN1CCC(F)(c2nnc([C@]34CN(c5ccc(C#N)c6ncccc56)C[C@@]3(C(F)(F)F)C4)o2)C1` (stereo partly drawn) [Compound 47, 5-((1S,5R)-1-(5-(3-fluoro-1-methylpyrrolidin-3-yl)-1,3,4-oxadiazol-2-yl)-5-(trifluoromethyl)-3-azabicyclo[3.1.0]hexan-3-yl)quinoline-8-carbonitrile]: the IC50 was > 10 µM.
Consider `CN1CC(F)(c2nnc([C@]34CN(c5ccc(C#N)c6ncccc56)C[C@@]3(C(F)(F)F)C4)o2)C1` [Compound 49, 5-((1S,5R)-1-(5-(3-fluoro-1-methylazetidin-3-yl)-1,3,4-oxadiazol-2-yl)-5-(trifluoromethyl)-3-azabicyclo[3.1.0]hexan-3-yl)quinoline-8-carbonitrile], for which the IC50 is > 10 µM.
For the compound `CN1CCC(c2nnc([C@]34CN(c5ccc(C#N)c6ncccc56)C[C@@]3(C(F)(F)F)C4)o2)C(F)C1` (stereo partly drawn) [Compound 50, 5-((1S,5R)-1-(5-(3-fluoro-1-methylpiperidin-4-yl)-1,3,4-oxadiazol-2-yl)-5-(trifluoromethyl)-3-azabicyclo[3.1.0]hexan-3-yl)quinoline-8-carbonitrile], the IC50 is > 1 µM.
As for `CN(C)CCc1nnc([C@]23CN(c4ccc(C#N)c5ncccc45)C[C@@]2(C(F)(F)F)C3)o1` [Compound 51, 5-((1S,5R)-1-(5-(2-(dimethylamino)ethyl)-1,3,4-oxadiazol-2-yl)-5-(trifluoromethyl)-3-azabicyclo[3.1.0]hexan-3-yl)quinoline-8-carbonitrile], the figure is > 10 µM.
As to `N#Cc1ccc(N2C[C@]3(c4nnc(C56CCC(N)(CC5)CC6)o4)C[C@]3(C(F)(F)F)C2)c2cccnc12` [Compound 52, 5-((1S,5R)-1-(5-(4-aminobicyclo[2.2.2]octan-1-yl)-1,3,4-oxadiazol-2-yl)-5-(trifluoromethyl)-3-azabicyclo[3.1.0]hexan-3-yl)quinoline-8-carbonitrile], the IC50 is < 1 µM.
In the case of `CN(C)C12CCC(c3nnc([C@]45CN(c6ccc(C#N)c7ncccc67)C[C@@]4(C(F)(F)F)C5)o3)(CC1)CC2` [Compound 53, 5-((1S,5R)-1-(5-(4-(dimethylamino)bicyclo[2.2.2]octan-1-yl)-1,3,4-oxadiazol-2-yl)-5-(trifluoromethyl)-3-azabicyclo[3.1.0]hexan-3-yl)quinoline-8-carbonitrile], the IC50 is > 1 µM.
Consider `N#Cc1ccc(N2C[C@]3(c4nnc(C56CCC(NC(=O)[C@@H]7COCCN7)(CC5)CC6)o4)C[C@]3(C(F)(F)F)C2)c2cccnc12` [Compound 54, (S)-N-(4-(5-((1S,5R)-3-(8-cyanoquinolin-5-yl)-5-(trifluoromethyl)-3-azabicyclo[3.1.0]hexan-1-yl)-1,3,4-oxadiazol-2-yl)bicyclo[2.2.2]octan-1-yl)morpholine-3-carboxamide], for which the IC50 is > 1 µM.
As to `N#Cc1ccc(N2C[C@]3(c4nnc([C@H]5CN(CC(N)=O)CCO5)o4)C[C@]3(C(F)(F)F)C2)c2cccnc12` [Compound 56, 2-((R)-2-(5-((1S,5R)-3-(8-cyanoquinolin-5-yl)-5-(trifluoromethyl)-3-azabicyclo[3.1.0]hexan-1-yl)-1,3,4-oxadiazol-2-yl)morpholino)acetamide], the IC50 is > 10 µM.
In the case of `CN1CCC(c2nnc([C@]34CN(c5ccc(C#N)n6ncc(F)c56)C[C@@]3(C(F)(F)F)C4)o2)CC1` [Compound 57, 3-fluoro-4-((1S,5R)-1-(5-(1-methylpiperidin-4-yl)-1,3,4-oxadiazol-2-yl)-5-(trifluoromethyl)-3-azabicyclo[3.1.0]hexan-3-yl)pyrazolo[1,5-a]pyridine-7-carbonitrile], the IC50 was > 1 µM.
As for `CN1CCC(c2nnc([C@]34CN(c5ccc(C#N)n6nccc56)C[C@@]3(C(F)(F)F)C4)o2)CC1` [Compound 59, 4-((1S,5R)-1-(5-(1-methylpiperidin-4-yl)-1,3,4-oxadiazol-2-yl)-5-(trifluoromethyl)-3-azabicyclo[3.1.0]hexan-3-yl)pyrazolo[1,5-a]pyridine-7-carbonitrile], the figure is > 1 µM; as for `N#Cc1ccc(N2C[C@]3(c4nnc(C5(F)CCNCC5)o4)C[C@]3(C(F)(F)F)C2)c2cccnc12` [Compound 60, 5-((1S,5R)-1-(5-(4-fluoropiperidin-4-yl)-1,3,4-oxadiazol-2-yl)-5-(trifluoromethyl)-3-azabicyclo[3.1.0]hexan-3-yl)quinoline-8-carbonitrile], < 1 µM.
As for `COc1ccc(N2C[C@]3(c4nnc(C5CCN(C)CC5)o4)C[C@]3(C(F)(F)F)C2)c2cccnc12` [Compound 66, 2-((1S,5R)-3-(8-methoxyquinolin-5-yl)-5-(trifluoromethyl)-3-azabicyclo[3.1.0]hexan-1-yl)-5-(1-methylpiperidin-4-yl)-1,3,4-oxadiazole], the IC50 is > 1 µM.
Consider `CN1CCC(n2cc([C@]34CN(c5ccc(C#N)c6ncccc56)C[C@@]3(C(F)(F)F)C4)nn2)CC1` [Compound 71, 5-((1S,5R)-1-(1-(1-methylpiperidin-4-yl)-1H-1,2,3-triazol-4-yl)-5-(trifluoromethyl)-3-azabicyclo[3.1.0]hexan-3-yl)quinoline-8-carbonitrile], for which the IC50 is > 1 µM.

The record behind these values is patent EP4806891A1 (Kangbaida (Sichuan) Biotechnology Co., Ltd., priority 2023, dated 2025).
